Results taken from paper PMC10726357, “New Genetically Engineered Derivatives of Antibacterial Darobactins Underpin Their Potential for Antibiotic Development” (Journal of Medicinal Chemistry, 2023).
Values after ≈ are worked out from the molar mass of the structure shown. Where two headings read alike, the source gives them in different places.

What was measured:
[1] = biological target: T1, EcBamA (E. coli BamA barrel domain) (Escherichia coli, UniProt P0A940, C690S/C700S); test: Microscale thermophoresis (MST) KD determination; assay type: binding
T1 construct: The E. coli BamA barrel domain (BamA-β) (residues 421–810, C690S, C700S); made in house
Method: As an alternative to the previously published methods using isothermal titration calorimetry (ITC), we established a KD determination assay using microscale thermophoresis (MST) to enable higher throughput.
Microscale thermophoresis (MST) (serial no. 201709-BR-N024, Monolith NT.115 Micro Scale Thermophoresis, NanoTemper Technologies GmbH) was performed according to the standard protocol from the manufacturer NanoTemper Technologies GmbH using a Monolith His-Tag Labeling Kit RED-tris-NTA second-generation kit. The buffer used was HEPES (50 mM), pH 7.6, MgCl2 (5 mM), and Tween (0.05%). […] A 1:1 dilution of the ligand over 16 samples was performed using a stock of ligand (in water) diluted in HEPES buffer. Nonhydrophobic capillary tubes were used. A pretest to check for the labeling and compound fluorescence was performed for every sample followed by a binding affinity (KD) determination. Each sample was measured after 15 min of incubation at RT and analyzed in MO Control version 1.6.

P. aeruginosa PA01 = assay type: cell-based, Pseudomonas aeruginosa
Method: (§1) The antibacterial activity of novel darobactins was determined by the evaluation of the minimum inhibitory concentration (MIC) as previously described for crude extracts and for pure darobactin analogues.[12]

K. pneumoniae DSM-30104 = assay type: cell-based, Klebsiella pneumoniae
Method: as §1

E. coli ATCC25922 = assay type: cell-based, Escherichia coli
Method: as §1

A. baumannii DSM-30008 = assay type: cell-based, Acinetobacter baumannii
Method: as §1

[2] = for liver microsomes Clint / liver microsomes t1/2: 1 μM; for liver microsomes t1/2: 120 min incubation
Method: The metabolic stability of testosterone, verapamil, and ketoconazole was determined in parallel to confirm the enzymatic activity of mouse/rat liver microsomes; for human liver microsomes, testosterone, diclofenac, and propranolol were used. Incubation was stopped after defined time points by precipitation of aliquots of enzymes with 2 volumes of cold acetonitrile containing an internal standard (15 nM diphenhydramine). Samples were stored on ice until the end of the incubation, and precipitated protein was removed by centrifugation (15 min, 4 °C, and 4000g). The concentration of the remaining test compound at the different time points was analyzed by HPLC-MS/MS (TSQ Altis Plus, Thermo Fisher, Dreieich, Germany) and used to determine the half-life (t1/2).

[3] = test system: P. aeruginosa PA14 DSM 19882; assay type: cell-based, Pseudomonas aeruginosa
Method: as §1

A. baumannii ATCC 17978 = assay type: cell-based, Acinetobacter baumannii
Method: as §1

A. baumannii NCTC 13301 = assay type: cell-based, Acinetobacter baumannii
Method: as §1

[4] = rat (Wistar) plasma; 1 μM
Method: (§2) To determine stability in plasma, the compound (1 μM) was incubated with pooled CD-1 mouse, Wistar rat, or human plasma (Neo Biotech, Nanterre, France). […] Samples were stored on ice until the end of the incubation, and precipitated protein was removed by centrifugation (15 min, 4 °C, 4000g, and 2 centrifugation steps). The concentration of the remaining test compound at the different time points was analyzed by HPLC-MS/MS (TSQ Quantum Access MAX, Thermo Fisher, Dreieich, Germany). The plasma stability of procaine, propantheline, and diltiazem was determined in parallel to confirm the enzymatic activity.

[5] = test system: Acinetobacter baumannii DSM-30007; assay type: cell-based
Method: as §1

[6] = human plasma; 1 μM
Method: as §2

[7] = test system: P. aeruginosa 84389 (MDR clinical isolate); test: microbe, parasite or virus in culture
Method: as §1

[8] = test system: P. aeruginosa 83979 (MDR clinical isolate); test: microbe, parasite or virus in culture; conditions: for MIC: Pseudomonas aeruginosa
Method: as §1

Gram-negative bacteria = conditions: result in words; cited from earlier work

In the case of `C[C@@H](O)[C@@H]1NC(=O)[C@H]2NC(=O)[C@H](CC(N)=O)NC(=O)[C@@H](N)Cc3c[nH]c4c(cccc34)O[C@@H]2c2c[nH]c3cc(ccc23)[C@H](CCNC(=N)N)[C@@H](C(=O)N[C@@H](CCCNC(=N)N)C(=O)N[C@@H](Cc2c[nH]c3ccccc23)C(=O)O)NC1=O` [D39], the Kd [1] is reported as 10.9 ± 3.5 µM, the “IC50 HepG2” value (HepG2) is reported as greater than 37 µg/mL and the “MIC P. aeruginosa [PA01]” value (P. aeruginosa PA01) is reported as 2 µg/mL (≈ 1.79 µM). The “MIC K. pneumoniae [DSM-30104]” value (K. pneumoniae DSM-30104; DSM-30104) was 4 to 8 µg/mL, the “MIC E. coli [ATCC25922]” value (E. coli ATCC25922; ATCC25922) was 4 to 8 µg/mL and the “MIC A. baumannii [DSM-30008]” value (A. baumannii DSM-30008; DSM-30008) was 0.5 to 2 µg/mL.

For `C[C@@H](O)[C@@H]1NC(=O)[C@H]2NC(=O)[C@H](CCC(=O)O)NC(=O)[C@@H](N)Cc3c[nH]c4c(cccc34)O[C@@H]2c2c[nH]c3cc(ccc23)[C@H](CCCN)[C@@H](C(=O)N[C@@H](CCCNC(=N)N)C(=O)N[C@@H](Cc2c[nH]c3ccccc23)C(=O)O)NC1=O` [D58], the Kd [1] was 5.1 ± 3.7 µM, the “IC50 HepG2” value (HepG2; cytotoxicity, n = 2) was greater than 37 µg/mL and the “MIC P. aeruginosa [PA01]” value (P. aeruginosa PA01; pure compound, n = 2, Table 2) was 8 µg/mL (≈ 7.25 µM). The “MIC K. pneumoniae [DSM-30104]” value (K. pneumoniae DSM-30104; pure compound, n = 2, Table 2) was 16 µg/mL (≈ 14.5 µM), the “MIC E. coli [ATCC25922]” value (E. coli ATCC25922; pure compound, n = 2, Table 2) was 8 µg/mL (≈ 7.25 µM) and the “MIC A. baumannii [DSM-30008]” value (A. baumannii DSM-30008; pure compound, n = 2, Table 2) was 2 µg/mL (≈ 1.81 µM).

With `C[C@@H](O)[C@@H]1NC(=O)[C@H]2NC(=O)[C@H](CCC(N)=O)NC(=O)[C@@H](N)Cc3c[nH]c4c(cccc34)O[C@@H]2c2c[nH]c3cc(ccc23)[C@H](CCCN)[C@@H](C(=O)N[C@@H](CCCNC(=N)N)C(=O)N[C@@H](Cc2c[nH]c3ccccc23)C(=O)O)NC1=O` [D61] the Kd [1] was 3.6 ± 0.6 µM, the “IC50 HepG2” value (HepG2; cytotoxicity, n = 2) was greater than 37 µg/mL and the “MIC P. aeruginosa [PA01]” value (P. aeruginosa PA01; pure compound, n = 2, Table 2) was 4 µg/mL (≈ 3.63 µM). For the same molecule, the “MIC K. pneumoniae [DSM-30104]” value (K. pneumoniae DSM-30104; pure compound, n = 2, Table 2) was 8 µg/mL (≈ 7.26 µM), the “MIC E. coli [ATCC25922]” value (E. coli ATCC25922; pure compound, n = 2, Table 2) was 2 µg/mL (≈ 1.81 µM) and the “MIC A. baumannii [DSM-30008]” value (A. baumannii DSM-30008; pure compound, n = 2, Table 2) was 0.5 µg/mL (≈ 0.454 µM).

For `C[C@@H](O)[C@@H]1NC(=O)[C@H]2NC(=O)[C@H](CO)NC(=O)[C@@H](N)Cc3c[nH]c4c(cccc34)O[C@@H]2c2c[nH]c3cc(ccc23)[C@H](CCCN)[C@@H](C(=O)N[C@@H](CCCNC(=N)N)C(=O)N[C@@H](Cc2c[nH]c3ccccc23)C(=O)O)NC1=O` [D64], the Kd [1] was 5.1 ± 0.7 µM, the “IC50 HepG2” value (HepG2) was greater than 37 µg/mL and the “MIC P. aeruginosa [PA01]” value (P. aeruginosa PA01) was 2 µg/mL (≈ 1.88 µM). The “MIC K. pneumoniae [DSM-30104]” value (K. pneumoniae DSM-30104; DSM-30104) was 16 µg/mL (≈ 15.1 µM), the “MIC E. coli [ATCC25922]” value (E. coli ATCC25922; ATCC25922) was 4 µg/mL (≈ 3.77 µM) and the “MIC A. baumannii [DSM-30008]” value (A. baumannii DSM-30008; DSM-30008) was 0.5 µg/mL (≈ 0.471 µM).

For `N=C(N)NCCC[C@H](NC(=O)[C@H]1NC(=O)[C@H](CO)NC(=O)[C@H]2NC(=O)[C@H](CCC(N)=O)NC(=O)[C@@H](N)Cc3c[nH]c4c(cccc34)O[C@@H]2c2c[nH]c3cc(ccc23)[C@@H]1CCCN)C(=O)N[C@@H](Cc1c[nH]c2ccccc12)C(=O)O` [D69, darobactin 69], the Kd [1] was 1.4 ± 0.4 µM, the “plasma t1/2” value (mouse CD-1 plasma, 1 μM) was greater than 4 h and the “plasma stability (degradation)” value (over 4 h) was “no degradation”. For the same molecule, the “IC50 HepG2” value (HepG2) was greater than 37 µg/mL, the “liver microsomes Clint” value ([2]; human) was less than 11.6 µL/min/mg and the “liver microsomes t1/2” value ([2]; human) was greater than 2 h. For the same molecule, the “liver microsomes Clint” value ([2]; mouse C57BL/6) was less than 11.6 µL/min/mg, the “liver microsomes t1/2” value ([2]; mouse C57BL/6) was greater than 2 h and the “metabolism in murine liver microsomes” value ([2]; over 2 h) was “not metabolized”. The “liver microsomes Clint” value ([2]; rat (Wistar)) was less than 11.6 µL/min/mg, the “liver microsomes t1/2” value ([2]; rat (Wistar)) was greater than 2 h and the “MIC P. aeruginosa [PA01]” value (P. aeruginosa PA01) was 1 µg/mL (≈ 0.919 µM). For the same molecule, the “MIC Pseudomonas aeruginosa PA01 DSM 22644” value (P. aeruginosa PA01) was 1 μg mL^–1, the “MIC P. aeruginosa PA14 DSM 19882” value [3] was 16 μg mL^–1 and the “MIC K. pneumoniae [DSM-30104]” value (K. pneumoniae DSM-30104; DSM-30104) was 4 µg/mL (≈ 3.68 µM). The “MIC E. coli [ATCC25922]” value (E. coli ATCC25922; ATCC25922) was 1 µg/mL (≈ 0.919 µM), the “MIC A. baumannii DSM-30008” value (A. baumannii DSM-30008; DSM-30008) was 0.5 μg mL^–1 and the “MIC A. baumannii [DSM-30008]” value (A. baumannii DSM-30008; DSM-30008) was 0.5 µg/mL (≈ 0.459 µM). For the same molecule, the “MIC A. baumannii ATCC 17978” value (A. baumannii ATCC 17978) was 16 μg mL^–1, the “MIC A. baumannii NCTC 13301” value (A. baumannii NCTC 13301) was 8–16 μg mL^–1 and the “plasma t1/2” value [4] was greater than 4 h. The “MIC Acinetobacter baumannii DSM-30007” value [5] was 2 μg mL^–1, the “plasma t1/2” value [6] was greater than 4 h and the “MIC P. aeruginosa 84389” value ([7]; 84389 (MDR clinical isolate)) was 16–32 μg mL^–1. For the same molecule, the “MIC P. aeruginosa 83979” value ([8]; 83979 (MDR clinical isolate)) was 8–16 μg mL^–1.

For `N=C(N)NCC[C@H]1c2ccc3c(c[nH]c3c2)[C@H]2Oc3cccc4c(c[nH]c34)C[C@H](N)C(=O)N[C@@H](CC(N)=O)C(=O)N[C@@H]2C(=O)N[C@@H](CO)C(=O)N[C@@H]1C(=O)N[C@@H](CO)C(=O)N[C@@H](Cc1ccccc1)C(=O)O` [DD, darobactin D, reference compound], the published antibacterial activity (Gram-negative bacteria) is listed as “inactive”, the “MIC P. aeruginosa [PA01]” value (P. aeruginosa PA01) is listed as 2 µg/mL (≈ 2.01 µM) and the “MIC K. pneumoniae [DSM-30104]” value (K. pneumoniae DSM-30104; DSM-30104) is listed as 8 to 16 µg/mL. The “MIC E. coli [ATCC25922]” value (E. coli ATCC25922; ATCC25922) was 1 µg/mL (≈ 1.01 µM) and the “MIC A. baumannii [DSM-30008]” value (A. baumannii DSM-30008; DSM-30008) was 4 to 8 µg/mL.

Work on `C[C@@H](O)[C@H]1C(=O)N2C(C(=O)O)=C(S[C@@H]3CN[C@H](C(=O)N(C)C)C3)[C@H](C)[C@H]12` [meropenem] yielded an MIC ([7]; Pseudomonas aeruginosa, read-out: MIC P. aeruginosa 84389) of 16 µg/mL (≈ 41.7 µM), an MIC ([8]; BAL, read-out: resistance profile, MIC, P. aeroginosa 83979) greater than 16 µg/mL and an MIC ([8]; read-out: MIC P. aeruginosa 83979) of 16 µg/mL (≈ 41.7 µM).

In the case of “darobactin E (WSWSKSF) [DE, native darobactin analogue, core peptide WSWSKSF]”, the published antibacterial activity (Gram-negative bacteria) is listed as “rather inactive”.
